Values joined by “and” are separate entries in the source; they are usually repeats but may differ in a detail not shown here. Equal values may be shown once.
How the values were obtained:
telomerase [1] = molecular target: T1, telomerase (Homo sapiens, UniProt O14746); assay: Telomerase extension after insertion of modified dNTP (percent of product terminated at each template position); format: biochemical; parameters: made in house; anti-FLAG immunopurification, eluted with 3xFLAG peptide; conditions: for Extension after insertion of the modified dNTP (in words): 50 μM each dNTP, analog substituted for natural dNTP; for Percent of Total Product: Mean
Procedure: Direct telomerase assays were conducted with 5 nM ^32P-end labeled primer a and d Primer 3 (AGGGTT)3, b Primer 1 (TTAGGG)3, or c Primer 2 […]. […] Products were separated on denaturing gels. Letters on the y-axis of the graph indicate the template base; P indicates unextended 18-mer primer. Graphs represent percent of product terminated at each template position as a function of total products. Images are representative of, and data are the mean ± s.d. from, three independent experiments. Source data are provided as a Source Date file.
(§1) The reactions were started by the addition of 3 μl of immunopurified telomerase eluent, incubated at 37 °C for 1 h, then terminated with 2 μl of […] and heat inactivated at 65 °C for 20 min. An equal volume of loading buffer (94% formamide, 0.1× TBE, 0.1% bromophenol blue, 0.1% xylene cyanol) was added to the reaction eluent. The samples were heat denatured for 10 min at 100 °C and loaded onto a 14% denaturing acrylamide gel (7 M urea, 1× TBE) and electrophoresed for 90 min at constant 38 W. Samples were imaged using a Typhoon phosphorimager (GE Healthcare). Percent primer extension was calculated with ImageQuant TL 8.2 by measuring the intensity of each product band and dividing by the total radioactivity in the lane or total products, as indicated in the figure legends.
Target sequence in this assay (O14746 whole entry): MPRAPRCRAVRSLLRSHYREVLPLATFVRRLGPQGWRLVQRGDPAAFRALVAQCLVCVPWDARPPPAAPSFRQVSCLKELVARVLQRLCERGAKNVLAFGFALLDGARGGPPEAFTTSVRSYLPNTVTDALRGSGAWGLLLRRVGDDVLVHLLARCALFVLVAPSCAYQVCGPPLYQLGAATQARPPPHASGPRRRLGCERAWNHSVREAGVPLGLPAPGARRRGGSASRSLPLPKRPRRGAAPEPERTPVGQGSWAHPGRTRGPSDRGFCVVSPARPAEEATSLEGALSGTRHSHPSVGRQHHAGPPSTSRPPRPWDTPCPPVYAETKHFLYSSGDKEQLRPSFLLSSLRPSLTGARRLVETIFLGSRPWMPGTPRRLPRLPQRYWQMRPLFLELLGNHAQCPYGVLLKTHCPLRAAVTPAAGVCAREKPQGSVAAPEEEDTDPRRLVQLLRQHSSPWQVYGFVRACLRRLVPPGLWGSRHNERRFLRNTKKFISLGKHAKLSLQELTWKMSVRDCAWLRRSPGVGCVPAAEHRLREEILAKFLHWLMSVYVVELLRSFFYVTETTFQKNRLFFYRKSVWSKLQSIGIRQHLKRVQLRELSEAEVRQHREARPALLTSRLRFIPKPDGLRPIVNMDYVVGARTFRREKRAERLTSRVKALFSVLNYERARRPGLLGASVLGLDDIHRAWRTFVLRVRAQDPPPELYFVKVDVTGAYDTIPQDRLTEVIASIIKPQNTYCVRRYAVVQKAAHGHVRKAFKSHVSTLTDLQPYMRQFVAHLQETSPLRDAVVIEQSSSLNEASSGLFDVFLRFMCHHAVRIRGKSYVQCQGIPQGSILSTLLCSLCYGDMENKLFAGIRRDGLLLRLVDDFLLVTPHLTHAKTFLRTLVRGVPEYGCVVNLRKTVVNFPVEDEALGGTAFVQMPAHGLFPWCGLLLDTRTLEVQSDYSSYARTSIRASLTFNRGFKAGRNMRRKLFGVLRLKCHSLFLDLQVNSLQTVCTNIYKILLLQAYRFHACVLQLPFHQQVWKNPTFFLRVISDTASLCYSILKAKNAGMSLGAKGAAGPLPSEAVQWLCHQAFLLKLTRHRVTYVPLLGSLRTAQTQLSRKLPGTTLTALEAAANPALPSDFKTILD

telomerase [2] = molecular target: T1, telomerase; assay: Direct telomerase assay in the absence or presence of POT1-TPP1 (processivity R1/2); format: biochemical; parameters: made in house; POT1: baculovirus-infected Sf9; TPP1-N: E. coli BL21(DE3) pLysS; conditions: analog substituted for its natural dNTP, other dNTPs at cellular concentration
Source text: Next we tested whether the telomerase processivity factor POT1–TPP1 modulates modified dNTP inhibition of telomerase. POT1 binds to the telomeric ssDNA overhang, requiring the minimum sequence of 5′-[…]-3′[38]. Inclusion of POT1-binding partner TPP1, increases the binding affinity for telomeric DNA ten-fold compared to POT1 alone. POT1–TPP1 recruits telomerase to telomeres in vivo[39], and greatly increases telomerase repeat processivity. Therefore, we reasoned that POT1–TPP1 may overcome inhibition by the modified dNTPs and enhance telomerase processivity. We conducted telomerase extension reactions with radiolabeled primer in the presence of POT1–TPP1, and used a primer with a single mutation ([…]; underlined G to C mutation)[40] to ensure POT1–TPP1 is positioned at the 5′ portion of the primer (Fig. 5). This provides a homogenous substrate for telomerase extension.
For these reactions, we replaced the natural dNTP with the modified dNTP analog, while the other dNTPs remained at cellular relevant concentrations.
Direct telomerase assays were conducted in the absence or presence of 500 nM POT1 and 500 nM TPP1, as indicated, and 5 nM ^32P-end labeled primer ([…]) designed to position POT1 at the 10 nt primer 5′ end. Reactions contained cellular-concentration dNTPs (lanes 1 and 2), except when the natural dNTP was substituted with the oxidized dNTP a or therapeutic dNTP b analog (lanes 3–8), as indicated. […] Letters on the right indicate template base; P indicates unextended 18-mer primer. c Processivity was calculated on the basis of total products normalized to loading control. Images are representative of, and data are shown as mean ± s.d. from 3 to 5 independent experiments. Source data are provided as a Source Data file.
as §1
The processivity was calculated as described[40],[67]. Repeat processivity from the direct telomerase extension assays was calculated as R1/2 (equivalent to the half-time for decay in an exponential time course), which represents the median length of DNA product formed, expressed in terms of number of telomere repeats. First, the total volume counts for each product band extend by one or more telomere repeats were obtained using Image Quant TL. The volume counts were then normalized by dividing by the number of radiolabeled guanosines incorporated into the extended products based on the number of repeats added, termed corrected volume (corr vol). The “percent left behind” (%LB) was calculated for each product band by summing the counts for that product band and for every product band below (shorter products), divided by the total counts for the lane, and then multiplied by 100. The natural log of (100−%LB) was calculated and then plotted vs. repeat number for each product length. A linear regression line was fit to the data to determine the slope of the line.

[3] = 500 nM POT1 and 500 nM TPP1, Mean
[4] = 500 nM POT1 and 500 nM TPP1, n1-n3

Nc1nc(O)nc2c1ncn2C1CC(O)C(COP(=O)(O)OP(=O)(O)OP(=O)(O)O)O1 (centres unmarked) [2-OH-dATP]
Extension after insertion of the modified dNTP (in words) (telomerase [1]): translocation to add the next repeat is greatly compromised | Percent of Total Product (telomerase [1]; Fig 4a, Primer 3, 50 μM each dTTP, dGTP and dATP or 2-OH-dATP, terminated at rA3): 5.06% | Percent of Total Product (telomerase [1]; Fig 4a, Primer 3, 50 μM each dTTP, dGTP and dATP or 2-OH-dATP, terminated at rA4): 1.19% | Percent of Total Product (telomerase [1]; Fig 4a, Primer 3, 50 μM each dTTP, dGTP and dATP or 2-OH-dATP, terminated at rC1): 1.62% | Percent of Total Product (telomerase [1]; Fig 4a, Primer 3, 50 μM each dTTP, dGTP and dATP or 2-OH-dATP, terminated at rC2): 10.51% | Percent of Total Product (telomerase [1]; Fig 4a, Primer 3, 50 μM each dTTP, dGTP and dATP or 2-OH-dATP, terminated at rC6): 68.71% | Percent of Total Product (telomerase [1]; Fig 4a, Primer 3, 50 μM each dTTP, dGTP and dATP or 2-OH-dATP, terminated at rU5 (first)): 12.42% | Percent of Total Product (telomerase [1]; Fig 4a, Primer 3, 50 μM each dTTP, dGTP and dATP or 2-OH-dATP, terminated at rU5 (second, after translocation)): 0.49% | Processivity R 1/2 (telomerase [2]; [3]): 2.3 | Processivity R 1/2 (telomerase [2]; 500 nM POT1 and 500 nM TPP1, Mean, listed as 2dA): 2.27 | Processivity R 1/2 (telomerase [2]; 500 nM POT1 and 500 nM TPP1, n1-n3, listed as 2dA): 2.20 and 2.10 and 2.50 | Processivity R 1/2 (telomerase [2]; Control (no POT1-TPP1), Mean): 0.5 | Processivity R 1/2 (telomerase [2]; Control (no POT1-TPP1), Mean, listed as 2dA): 0.49 | Processivity R 1/2 (telomerase [2]; Control (no POT1-TPP1), n1-n3, listed as 2dA): 0.49 and 0.48 and 0.51

Nc1nc2c(ncn2C2CC(O)C(COP(=O)(O)OP(=O)(O)OP(=O)(O)O)O2)c(=S)[nH]1 (centres unmarked) [6-thio-dGTP]
Extension after insertion of the modified dNTP (in words) (telomerase [1]): not a chain terminator | Percent of Total Product (telomerase [1]; Fig 4b, Primer 1 (TTAGGG)3, 50 μM each dATP, dTTP and dGTP or 6-thio-dGTP, terminated at rA3): 11.46% | Percent of Total Product (telomerase [1]; Fig 4b, Primer 1, 50 μM each dATP, dTTP and dGTP or 6-thio-dGTP, terminated at rA4): 5.50% | Percent of Total Product (telomerase [1]; Fig 4b, Primer 1, 50 μM each dATP, dTTP and dGTP or 6-thio-dGTP, terminated at rC1): 37.27% | Percent of Total Product (telomerase [1]; Fig 4b, Primer 1, 50 μM each dATP, dTTP and dGTP or 6-thio-dGTP, terminated at rC2): 6.46% | Percent of Total Product (telomerase [1]; Fig 4b, Primer 1, 50 μM each dATP, dTTP and dGTP or 6-thio-dGTP, terminated at rC6): 34.87% | Percent of Total Product (telomerase [1]; Fig 4b, Primer 1, 50 μM each dATP, dTTP and dGTP or 6-thio-dGTP, terminated at rU5): 3.92% | Percent of Total Product (telomerase [1]; Fig 4c, Primer 2, 50 μM each dATP, dTTP and dGTP or 6-thio-dGTP, terminated at rA3): 49.91% | Percent of Total Product (telomerase [1]; Fig 4c, Primer 2, 50 μM each dATP, dTTP and dGTP or 6-thio-dGTP, terminated at rA4): 4.12% | Percent of Total Product (telomerase [1]; Fig 4c, Primer 2, 50 μM each dATP, dTTP and dGTP or 6-thio-dGTP, terminated at rC1): 23.36% | Percent of Total Product (telomerase [1]; Fig 4c, Primer 2, 50 μM each dATP, dTTP and dGTP or 6-thio-dGTP, terminated at rC2): 22.82% | Percent of Total Product (telomerase [1]; Fig 4c, Primer 2, 50 μM each dATP, dTTP and dGTP or 6-thio-dGTP, terminated at rC6): 8.70% | Percent of Total Product (telomerase [1]; Fig 4c, Primer 2, 50 μM each dATP, dTTP and dGTP or 6-thio-dGTP, terminated at rU5): 0.81% | Percent of Total Product (telomerase [1]; Fig 4d, Primer 3 (AGGGTT)3, 50 μM each dATP, dTTP and dGTP or 6-thio-dGTP, terminated at rU5): 4.61% | Percent of Total Product (telomerase [1]; Fig 4d, Primer 3, 50 μM each dATP, dTTP and dGTP or 6-thio-dGTP, terminated at rA3): 1.16% | Percent of Total Product (telomerase [1]; Fig 4d, Primer 3, 50 μM each dATP, dTTP and dGTP or 6-thio-dGTP, terminated at rC1): 49.66% | Percent of Total Product (telomerase [1]; Fig 4d, Primer 3, 50 μM each dATP, dTTP and dGTP or 6-thio-dGTP, terminated at rC2): 7.38% | Percent of Total Product (telomerase [1]; Fig 4d, Primer 3, 50 μM each dATP, dTTP and dGTP or 6-thio-dGTP, terminated at rC6): 37.00% | Processivity R 1/2 (telomerase [2]; [3]): 0.00 | Processivity R 1/2 (telomerase [2]; [4]): 0.00 | Processivity R 1/2 (telomerase [2]; Control (no POT1-TPP1), Mean): 0.00 | Processivity R 1/2 (telomerase [2]; Control (no POT1-TPP1), n1-n3): 0.00

Nc1ncnc2c1[nH]c(=O)n2C1CC(O)C(COP(=O)(O)OP(=O)(O)OP(=O)(O)O)O1 (centres unmarked) [8-oxo-dATP]
Processivity R 1/2 (telomerase [2]; [3]): 1.31 | Processivity R 1/2 (telomerase [2]; 500 nM POT1 and 500 nM TPP1, n1-n3, listed as 8dA): 1.15 and 1.30 and 1.47 | Processivity R 1/2 (telomerase [2]; Control (no POT1-TPP1), Mean): 0.00 | Processivity R 1/2 (telomerase [2]; Control (no POT1-TPP1), n1-n3): 0.00

Nc1nc2c([nH]c(=O)n2C2CC(O)C(COP(=O)(O)OP(=O)(O)OP(=O)(O)O)O2)c(=O)[nH]1 (centres unmarked) [8-oxo-dGTP]
Processivity R 1/2 (telomerase [2]; [3]): 0.00 | Processivity R 1/2 (telomerase [2]; [4]): 0.00 | Processivity R 1/2 (telomerase [2]; Control (no POT1-TPP1), Mean): 0.00 | Processivity R 1/2 (telomerase [2]; Control (no POT1-TPP1), n1-n3): 0.00

Source: paper PMC7576608, “Mechanisms of telomerase inhibition by oxidized and therapeutic dNTPs” (Nature Communications, 2020)
